Experimental data from patent US20230181430A1, “TOPICAL FORMULATIONS COMPRISING DUTASTERIDE FOR TREATING DERMATOLOGICAL DISORDERS INCLUDING MALE PATTERN BALDNESS” (XYON Health Inc., priority 2020, published 2023).
Values joined by “and” are separate entries in the source; they are usually repeats but may differ in a detail not shown here. Equal entries are not always repeated. Where two headings read alike, the source gives them in different places.

Tests used:
[1] = cited from earlier work
[2] = experimental; cited from earlier work
[3] = in vivo; cited from earlier work
serum DHT = conditions: cited from earlier work; for reduction of serum DHT levels: oral administration / oral formulations
[4] = In vitro skin permeation assessment of dutasteride (Franz cell); format: in vitro ADME; conditions: 1-24 hours, human epidermis
Method: To investigate the impact of the siliconic components in dutasteride-loaded formulations, in vitro tests were conducted to measure the permeation through and retention into skin epidermis of a 1% dutasteride-loaded silicone gel formulation made according to the process of Example 2. As a comparison, a gel spray of dutasteride without silicone (PEG-8 Dimethicone or Poly(methylsilsesquioxane)) was also prepared. An original Franz-type diffusion cell system was modified to accommodate widened vertical columns and removal of the bowl shape. The diffusion area was 0.636 cm^2 with a receiver capacity of approximately 3.0 mL. The receiver volume for each cell was individually calibrated.
Human epidermis samples were prepared according to standard protocols. The samples were obtained from abdominal skin of two 30-50 year old Eurasiatic donors. The samples were used as a membrane between the two chambers in the Franz cells. […]
Before being mounted on the Franz cell, each epidermal sheet was visually inspected to avoid any possible defects. Additionally, the electrical resistance of isolated epidermis was measured to ensure the integrity of the barrier membrane. […]
The prepared Franz cells were stirred continuously using a magnetic stir bar at a temperature of 37° C. […] After standing for 24 hours, the supernatant was centrifuged at 3000 rpm for 10 minutes at 23° C. and analyzed by HPLC. […]

[5] = after oral administration; cited from earlier work

Row | SMILES | plasma protein binding [1] | logP [2] | volume of distribution [3] | suppression of DHT production (serum DHT; after sustained oral administration) | dutasteride in the receiver compartment [4] | systemic clearance (CL) [5] | reduction of serum DHT levels (serum DHT) | reduction of serum DHT levels (serum DHT; listed as Finasteride)
1 | C[C@]12C=CC(=O)N[C@@H]1CC[C@@H]1[C@@H]2CC[C@]2(C)[C@@H](C(=O)Nc3cc(C(F)(F)F)ccc3C(F)(F)F)CC[C@@H]12 [dutasteride, Dutasteride] | 99% | 6.8 | 300 to 500 L | up to 99% | never detected | – | – | –
2 | CC(C)(C)NC(=O)[C@H]1CC[C@H]2[C@@H]3CC[C@H]4NC(=O)C=C[C@]4(C)[C@H]3CC[C@]12C [finasteride, Finasteride] | – | 3.03 | 44 to 96 L | – | – | 165 mL/min | 60 to 70% and 60-70% | 65-70%
